# pIC50: −log10 of the molar value. Where two headings read alike, the source gives them in different places.
# Legend:
# [1] = tested on: imiquimod-induced psoriasis model; assay: Imiquimod-induced psoriasis model in mice; conditions: for Clinical Score (mean ± standard error) / Skin Thickness Score (mean ± standard error): Calcitriol 75 mg/mice topical QD
# TRKA = TRKA (Homo sapiens (Human), UniProt P04629); assay: Inhibitory activity on TRKA (ADP-Glo Kinase Assay)
# TRKB = TRKB (Homo sapiens (Human), UniProt Q16620); assay: Inhibitory activity on TRKB (ADP-Glo Kinase Assay)
# TRKB, sequence (Q16620 32-822): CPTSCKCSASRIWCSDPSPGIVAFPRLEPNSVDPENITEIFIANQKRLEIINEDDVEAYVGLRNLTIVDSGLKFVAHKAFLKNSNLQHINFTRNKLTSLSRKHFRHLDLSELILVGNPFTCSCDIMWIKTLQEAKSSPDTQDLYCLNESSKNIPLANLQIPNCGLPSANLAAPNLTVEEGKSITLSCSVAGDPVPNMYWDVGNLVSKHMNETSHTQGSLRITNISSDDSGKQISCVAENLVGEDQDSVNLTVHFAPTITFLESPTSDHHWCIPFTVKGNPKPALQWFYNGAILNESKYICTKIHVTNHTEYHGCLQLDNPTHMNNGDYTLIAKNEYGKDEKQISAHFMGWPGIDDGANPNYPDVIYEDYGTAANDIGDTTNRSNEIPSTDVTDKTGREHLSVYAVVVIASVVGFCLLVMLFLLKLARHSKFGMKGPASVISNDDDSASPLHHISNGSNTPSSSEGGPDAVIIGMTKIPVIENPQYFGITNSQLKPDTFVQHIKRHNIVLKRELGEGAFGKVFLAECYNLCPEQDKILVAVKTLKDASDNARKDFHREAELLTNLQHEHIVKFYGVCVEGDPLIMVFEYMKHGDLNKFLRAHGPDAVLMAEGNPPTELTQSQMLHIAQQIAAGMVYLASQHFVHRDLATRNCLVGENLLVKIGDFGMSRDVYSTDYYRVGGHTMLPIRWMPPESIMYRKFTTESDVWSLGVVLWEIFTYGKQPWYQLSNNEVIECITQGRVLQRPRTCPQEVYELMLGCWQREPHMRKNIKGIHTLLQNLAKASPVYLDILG
# TRKC = TRKC (Homo sapiens (Human), UniProt Q16288); assay: Inhibitory activity on TRKC (ADP-Glo Kinase Assay)
# TRKC, sequence (Q16288 32-839): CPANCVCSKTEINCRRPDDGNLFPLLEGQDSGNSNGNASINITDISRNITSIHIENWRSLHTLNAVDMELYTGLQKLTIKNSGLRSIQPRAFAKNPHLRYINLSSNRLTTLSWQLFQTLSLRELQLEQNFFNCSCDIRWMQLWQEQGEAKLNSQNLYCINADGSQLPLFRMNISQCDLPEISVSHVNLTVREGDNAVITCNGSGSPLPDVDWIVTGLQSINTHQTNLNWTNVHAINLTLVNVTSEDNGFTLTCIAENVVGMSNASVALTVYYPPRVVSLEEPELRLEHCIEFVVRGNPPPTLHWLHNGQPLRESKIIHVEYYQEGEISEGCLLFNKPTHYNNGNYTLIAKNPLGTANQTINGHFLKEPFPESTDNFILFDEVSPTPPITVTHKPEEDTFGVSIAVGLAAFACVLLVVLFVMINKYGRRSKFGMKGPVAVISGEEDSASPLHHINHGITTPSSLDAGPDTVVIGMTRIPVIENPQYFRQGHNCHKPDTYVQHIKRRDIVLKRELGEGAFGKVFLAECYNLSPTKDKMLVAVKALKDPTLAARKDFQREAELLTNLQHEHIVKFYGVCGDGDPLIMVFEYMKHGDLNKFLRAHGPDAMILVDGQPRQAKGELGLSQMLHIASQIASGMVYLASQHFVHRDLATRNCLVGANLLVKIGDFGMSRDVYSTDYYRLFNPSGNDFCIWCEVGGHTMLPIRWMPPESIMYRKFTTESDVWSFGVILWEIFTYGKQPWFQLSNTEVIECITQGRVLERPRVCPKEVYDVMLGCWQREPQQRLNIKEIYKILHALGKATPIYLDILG
# acne model in rabbits = assay: Acne model in rabbits (coal tar + Propionibacterium acnes); format: in vivo, New Zealand white rabbits; conditions: 1% Clindamycin gel 0.5 g/kg once per day
# Protocol: Modeling: Rabbits were acclimated for 7 days. On the right inner ear canal exit of the rabbits, a 2 cm×2 cm area was treated with 2% coal tar solution once a day, 0.5-1 mL each time, for 26 consecutive days. […] On the 8th day, Propionibacterium acnes was injected intradermally at 3-4 sites on the rabbit ears, 50 μl per rabbit, injected every other day for a total of 5 times. Treatment was started randomly on the 9th day after the last injection.
# Rabbits were treated according to their groups. The blank group received no treatment. […] The model group received an equal amount of vehicle treatment, with the same application method and duration as the test drug groups.
# Twenty-four hours after the last administration, a 2.8 cm punch was used to prepare ear samples at the application site, and their weight was measured. The ears from the modeling site were fixed with 4% paraformaldehyde, and consecutive sections (3 slices) were taken from the same location for HE staining and histopathological analysis. At the same time, the area of 3 hair follicles and the diameter of 3 sebaceous glands were measured to calculate the average values. Blood was drawn from the heart and centrifuged to obtain serum, and the levels of interleukin-1α (IL-1α), interleukin-6 (IL-6), and dihydrotestosterone (DHT) in serum were determined according to the ELISA kit instructions.
# Tissue samples from animal ears were excised, fixed in 4% paraformaldehyde, dehydrated, embedded in paraffin, and sectioned and HE stained for observation of histopathological morphology changes. The tissue samples were fixed in 4% paraformaldehyde at normal temperature and the taken ears tissue was rinsed with running water for several hours, dehydrated through a series of ethanol solutions (70%, 80%, 90%), and then treated with a mixture of pure alcohol and xylene for 15 minutes, followed by xylene I for 15 minutes and xylene II for 15 minutes (until transparent). The tissue was then placed in a mixture of xylene and paraffin at a volume ratio of 1:1 for 15 minutes, followed by immersion with paraffin I and paraffin II each for 50-60 minutes. The tissue was embedded in paraffin and sectioned, and the sections were baked, dewaxed and hydrated in distilled water. The resulting sections were then stained in hematoxylin solution for 3 minutes, differentiated in a hydrochloric acid alcohol solution for 15 seconds, slightly washed, blued in a return blue solution for 15 seconds, rinsed with running water, stained with eosin for 3 minutes, rinsed with running water, dehydrated, cleared, and mounted for microscopic examination.
# A double-antibody one-step sandwich Enzyme-linked Immunosorbent Assay (ELISA) ket was used. A capture antibody for the mouse target indicators was pre-coated onto microplate wells, to which samples, standards, and HRP-labeled detection antibodies were added sequentially, followed by incubation and thorough washing. TMB substrate was added for color development, which turned into blue in the presence of peroxidase and then into yellow after acidification. The depth of color was positively correlated with the concentration of the target in the samples. The absorbance (OD450 value) was measured at a wavelength of 450 nm using the microplate reader, and the sample concentration was calculated.
# [2] = tested on: ovalbumin-induced asthma model in mice; assay: Ovalbumin-induced asthma model in mice; format: in vivo, Balb/c mice; conditions: vs. vehicle (model) group; nasal administration BID 5 days: MDI-1228 3 mg/kg, MDI-1288 3 mg/kg, MDI-1233 1, 3, 10 mg/kg; dexamethasone 1 mg/kg gavage QD
# Protocol: After 7 days of acclimatization, animals were randomly grouped based on their body weight. The experiment was divided into 8 groups, with 8 mice in each group, as detailed in the table below.
# • Preparation of Immunogen: Weigh an appropriate amount of OVA, to which an appropriate amount of PBS was added, to achieve a final concentration of 0.1 mg/ml. Then, an equal volume of aluminum adjuvant was added, and the resulting mixture was mixed well, and stored at 4° C., which was prepared before use. • Preparation of Sensitizer (5% OVA): Weigh an appropriate amount of OVA, to which an appropriate amount of PBS was added, to achieve a final concentration of 5%. The resulting mixture was mixed well, and store it at 4° C. for later use, which was prepared before use. • Preparation of Vehicle: Add 200 μl of Tween 80 to 100 ml of saline, and mix it well. […] Mix it well, and store it at 4° C. for later use. […] Mix it well, and store it at 4° C. for later use. […] Mix it well, and store it at 4° C. for later use. The solution was prepared once every three days.
# • Immunization: On days 0, 7, 14, and 21, 200 μl of PBS was injected intraperitoneally for the first group, and 200 μl of (10 μg) OVA/aluminum adjuvant emulsion was injected intraperitoneally for groups 2-8. • Sensitization: From days 28 to 32, the first group of animals was exposed to nebulized PBS in a nebulization box for 20 minutes, and the groups 2-8 were exposed to nebulized 5% OVA in a nebulization box for 20 minutes. And then, they were removed. The sensitization was conducted at 12:30 PM daily. • Administration: The medicine was administrated twice a day at 9 AM and 5 PM via nasal drops. Dexamethasone (Dex) was administered by gavage once a day at 9 AM.
# Serum IgE: Blood was collected from the orbits of animals after carbon dioxide euthanasia, and plasma was separated and stored at −40 degrees for plasma IgE detection.
# Bronchoalveolar Lavage Fluid (BALF) Cell Count: An appropriate amount of foetal bovine serum was weighted and dissolved in PBS to a final concentration of 1%. After orbital blood collection, the trachea was exposed, and a 1 ml syringe needle was replaced with a mouse gavage needle. 0.8 ml of the lavage fluid was aspirated from the syringe and the lungs were lavaged three times. The lavage fluids were collected, and centrifuged at 1000 rpm for 10 minutes, and the supernatant was collected and stored at −40 degrees Celsius. Cells were resuspended with 1 ml of PBS and counted. 100 ul of centrifuged smear was taken and stained with Diff quick and the number of eosinophils, basophils, lymphocytes and macrophages were recorded.
# Bronchoalveolar Lavage Fluid IL-5: Bronchoalveolar lavage fluid was collected to detect IL-5.
# Pathological scoring criteria were: • A) 0 points: No lymphocyte infiltration; • B) 1 point: Trace lymphocyte infiltration; • C) 2 points: Mild lymphocyte infiltration; • D) 3 points: Moderate lymphocyte infiltration; • E) 4 points: Severe lymphocyte infiltration; • After scoring, the results were calculated and analyzed.
# TRKA, sequence (P04629 33-796 limits assumed): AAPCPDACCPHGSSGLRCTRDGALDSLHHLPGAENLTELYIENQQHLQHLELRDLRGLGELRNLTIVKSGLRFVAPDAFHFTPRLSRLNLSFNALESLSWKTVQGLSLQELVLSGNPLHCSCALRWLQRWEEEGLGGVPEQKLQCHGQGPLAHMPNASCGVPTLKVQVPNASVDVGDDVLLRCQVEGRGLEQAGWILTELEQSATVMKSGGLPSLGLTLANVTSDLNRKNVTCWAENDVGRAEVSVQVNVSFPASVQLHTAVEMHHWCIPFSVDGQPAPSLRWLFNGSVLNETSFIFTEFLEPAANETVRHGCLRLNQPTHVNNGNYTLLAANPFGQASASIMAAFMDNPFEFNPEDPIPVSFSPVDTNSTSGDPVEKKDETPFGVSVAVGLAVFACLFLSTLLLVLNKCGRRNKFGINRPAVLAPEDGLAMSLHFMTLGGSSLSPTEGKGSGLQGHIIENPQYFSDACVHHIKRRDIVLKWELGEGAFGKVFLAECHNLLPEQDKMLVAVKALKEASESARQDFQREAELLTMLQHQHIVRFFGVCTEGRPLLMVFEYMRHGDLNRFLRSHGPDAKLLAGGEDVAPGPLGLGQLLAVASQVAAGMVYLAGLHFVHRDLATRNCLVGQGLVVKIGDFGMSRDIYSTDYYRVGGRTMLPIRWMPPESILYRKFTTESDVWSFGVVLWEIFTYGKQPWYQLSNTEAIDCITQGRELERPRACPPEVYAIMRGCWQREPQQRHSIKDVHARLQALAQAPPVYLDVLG
compound,measurement,setting,value
C=C1/C(=C\C=C2/CCC[C@]3(C)[C@@H]([C@H](C)CCCC(C)(C)O)CC[C@@H]23)C[C@@H](O)C[C@@H]1O [Calcitriol],Clinical Score (mean ± standard error),[1]; Day 0,0.0 ± 0.00
same,Skin Thickness Score (mean ± standard error),[1]; Day 0,0.0 ± 0.00
same,Clinical Score (mean ± standard error),[1]; Day 1,0.2 ± 0.13
same,Skin Thickness Score (mean ± standard error),[1]; Day 1,0.0 ± 0.00
same,Clinical Score (mean ± standard error),[1]; Day 2,1.2 ± 0.13
same,Skin Thickness Score (mean ± standard error),[1]; Day 2,0.0 ± 0.00
same,Clinical Score (mean ± standard error),[1]; Day 3,3.1 ± 0.28
same,Skin Thickness Score (mean ± standard error),[1]; Day 3,0.7 ± 0.15
same,Clinical Score (mean ± standard error),[1]; Day 4,4.3 ± 0.26
same,Skin Thickness Score (mean ± standard error),[1]; Day 4,1.2 ± 0.20
same,Clinical Score (mean ± standard error),[1]; Day 5,2.9 ± 0.18
same,Skin Thickness Score (mean ± standard error),[1]; Day 5,0.8 ± 0.20
same,Clinical Score (mean ± standard error),[1]; Day 6,2.5 ± 0.17
same,Skin Thickness Score (mean ± standard error),[1]; Day 6,0.5 ± 0.17
same,Clinical Score (mean ± standard error),[1]; Day 7,2.0 ± 0.00
same,Skin Thickness Score (mean ± standard error),[1]; Day 7,0.0 ± 0.00
same,Inhibition percentage of skin thickness score AUC relative to vehicle control group,[1]; calcitriol 75 mg/mice QD,64.2%
same,Skin histopathology,[1]; calcitriol 75 mg/mice QD,a trend of mitigation
"CCc1cc(O)c(F)cc1-c1ccc2c(-c3nc4c([nH]3)CN(C(=O)c3cnc(N5CCOCC5)cn3)C4)n[nH]c2c1 [MDI-201, (2-(6-(2-ethyl-5-fluoro-4-hydroxyphenyl)-1H-indazol-3-yl)-4,6-dihydropyrrolo[3,4-d]imidazol-5(1H)-yl)(5-morpholinepyrazin-2-yl)ketone]",pIC50,TRKA,8.24
same,pIC50,TRKB,8.21
same,pIC50,TRKC,8.66
"CCc1cc(O)c(F)cc1-c1ccc2c(-c3nc4c([nH]3)CN(S(=O)(=O)C3CC3)C4)n[nH]c2c1 [MDI-218, 4-(3-(5-(cyclopropanesulfonyl)-1,4,5,6-tetrahydropyrrolo[3,4-d]imidazol-2-yl)-1H-indazol-6-yl)-5-ethyl-2-fluorophenol]",pIC50,"TRKA; read-out: TRKA IC50, ATP 5 μM",8.00
same,pIC50,"TRKB; read-out: TRKB IC50, ATP 5 μM",7.49
same,pIC50,"TRKC; read-out: TRKC IC50, ATP 5 μM",8.29
"CCc1cc(O)c(F)cc1-c1ccc2c(-c3nc4c([nH]3)CN(C(=O)N3CCCC3)C4)n[nH]c2c1 [MDI-231, (2-(6-(2-ethyl-5-fluoro-4-hydroxyphenyl)-1H-indazol-3-yl)-4,6-dihydropyrrolo[3,4-d]imidazol-5-(1H)-yl)(pyrrolidin-1-yl)ketone]",pIC50,TRKA,8.55
same,pIC50,TRKB,8.23
same,pIC50,TRKC,8.83
CCc1cc(O)c(F)cc1-c1ccc2c(-c3nc4c([nH]3)CN(C(=O)N3CCCCC3)C4)n[nH]c2c1 [MDI-233],pIC50,TRKA,8.05
same,pIC50,TRKB,7.52
same,pIC50,TRKC,8.20
"CCc1cc(O)c(F)cc1-c1ccc2c(-c3nc4c([nH]3)CN(C(=O)N3CCOCC3)C4)n[nH]c2c1 [MDI-234, (2-(6-(2-ethyl-5-fluoro-4-hydroxyphenyl)-1H-indazol-3-yl)-4,6-dihydropyrrolo[3,4-d]imidazol-5-(1H)-yl)(morpholino)ketone]",pIC50,TRKA,8.97
same,pIC50,TRKB,8.90
same,pIC50,TRKC,9.19
"CCc1cc(O)c(F)cc1-c1ccc2c(-c3nc4c([nH]3)CN(C(=O)N3CCN(CC)CC3)C4)n[nH]c2c1 [MDI-236, (2-(6-(2-ethyl-5-fluoro-4-hydroxyphenyl)-1H-indazol-3-yl)-4,6-dihydropyrrolo[3,4-d]imidazol-5-(1H)-yl)(4-ethylpiperazin-1-yl)ketone]",pIC50,TRKA,9.64
same,pIC50,TRKB,8.97
same,pIC50,TRKC,9.70
"CCc1cc(O)c(F)cc1-c1ccc2c(-c3nc4c([nH]3)CN(C(=O)NCCO)C4)n[nH]c2c1 [MDI-248, 2-(6-(2-ethyl-5-fluoro-4-hydroxyphenyl)-1H-indazol-3-yl)-N-(2-hydroxylethyl)-4,6-dihydropyrrolo[3,4-d]imidazol-5(1H)-carboxamide]",pIC50,"TRKA; read-out: TRKA IC50, ATP 5 μM",7.92
same,pIC50,"TRKB; read-out: TRKB IC50, ATP 5 μM",8.45
same,pIC50,"TRKC; read-out: TRKC IC50, ATP 5 μM",8.42
"CCOC(=O)N1Cc2nc(-c3n[nH]c4cc(-c5cc(F)c(O)cc5CC)ccc34)[nH]c2C1 [MDI-253, Ethyl 2-(6-(2-ethyl-5-fluoro-4-hydroxyphenyl)-1H-indazol-3-yl)-4,6-dihydropyrrolo[3,4-d]imidazol-5(1H)-carboxylate]",pIC50,"TRKA; read-out: TRKA IC50, ATP 5 μM",7.94
same,pIC50,"TRKB; read-out: TRKB IC50, ATP 5 μM",7.01
same,pIC50,"TRKC; read-out: TRKC IC50, ATP 5 μM",7.88
"CCc1cc(O)c(F)cc1-c1ccc2c(-c3nc4c([nH]3)CN(C(=O)N(C)C)C4)n[nH]c2c1 [MDI-257, 2-(6-(2-ethyl-5-fluoro-4-hydroxyphenyl)-1H-indazol-3-yl)-N,N-dimethyl-4,6-dihydropyrrolo[3,4-d]imidazol-5(1H)-carboxamide]",pIC50,"TRKB; read-out: TRKB IC50, ATP 5 μM",8.53
same,pIC50,"TRKC; read-out: TRKC IC50, ATP 5 μM",9.14
"CCC[C@@H]1C[C@@H](C(=O)N[C@@H]([C@H]2O[C@H](SC)[C@H](O)[C@@H](O)[C@H]2O)[C@H](C)Cl)N(C)C1 [clindamycin, reference compound]",Hair follicle area,acne model in rabbits,not improved
same,Rabbit ear weight,acne model in rabbits; 2 weeks,did not reduce ear weight
"C[C@@H]1C[C@H]2[C@@H]3CCC4=CC(=O)C=C[C@]4(C)[C@@]3(F)[C@@H](O)C[C@]2(C)[C@@]1(O)C(=O)CO [dexamethasone, reference compound]",Bronchoalveolar lavage fluid IL-5 expression level,[2],significantly reduced the expression of IL-5
same,Inflammatory cell count in bronchoalveolar lavage fluid,[2],significantly reduced the Inflammatory Cell Count
same,Lung tissue inflammatory cell infiltration (HE pathology),[2],significantly reduced the lung tissue inflammatory cell infiltration
same,Serum IgE expression level,[2],significantly reduced the expression of IgE

# From US20250387388A1, “COMPOUND AS TRK INHIBITOR AND/OR RET INHIBITOR AND USE THEREOF” (Medinno Pharmaceutical Technology (Zhuhai) Co., Ltd., priority 2022, published 2025)
